[invAb] = inverted abasic unit; m = 2'-O-methyl; r = 2'-OH (RNA); f = 2'-fluoro

As a reminder, the IC50 is the midpoint of a concentration-inhibition curve. A higher IC50 goes with a need for much substance.

Assay type in all cases: cell-based
Data set [1] has as its system ASK1 mRNA. Put plainly: ASK1 mRNA knock-down by siNA in human A549 cells (RNAiMax transfection, Taqman RT-PCR). Particulars: for % KD Human: 10 nM siNA, 24 hrs post-transfection, vs non-targeting control, GAPDH-normalized, mean ± S.D.; for % KD Human / % KD ASK-1 10 nM: two experiments; for % KD ASK-1 mRNA at 10 nM: mean ± S.D. (Table 5); for % KD ASK-1 10 nM: mean ± standard deviation (Table 6). The method, then:
A549 (human; ATCC cat #CCL-185): Cells were cultured at 37° C. in the presence of 5% CO2 and grown in Ham's F12K medium with 2 mM L-glutamine adjusted to contain 1.5 g/L sodium bicarbonate and supplemented with fetal bovine serum at a final concentration of 10%, 100 μg/mL of streptomycin, and 100 U/mL penicillin.
(§1) Cells were plated in all wells of a tissue-culture treated, 96-well plate at a final count of 5000 cells/well (A549 cell line) and 3,500 cells/well (Hepal-6 cell line) in 100 μL of the appropriate culture media. The cells were cultured for 24 hours after plating at 37° C. in the presence of 5% CO2.
(§2) After 24 hours, complexes containing siNA and RNAiMax were created as follows: A solution of RNAiMax diluted 33-fold in OPTI-MEM was prepared. In parallel, solutions of the siNAs for testing were prepared to a final concentration of 120 nM in OPTI-MEM. After incubation of RNAiMax/OPTI-MEM solution at room temperature for 5 min, an equal volume of the siRNA solution and the RNAiMax solution were added together for each of the siNAs.
(§3) This solution was incubated at room temperature for 20 minutes. After incubation, 20 uL of the solution was added to each of the relevant wells. The final concentration of siNA in each well was 10 nM and the final volume of RNAiMax in each well was 0.3 ul.
(§4) The time of incubation with the RNAiMax-siNA complexes was 24 hours and there was no change in media between transfection and harvesting, unless otherwise indicated.
(§5) RNA was extracted from a 96-well plate using the TaqMan® Gene Expression Cells-to-CT™ Kit (Cat #4399002) with a modified protocol. Briefly, a 60 uL (1 plate) or 110 uL (2 plates) of the Lysis Solution with DNase I was dispensed into each well of the Lysis Buffer Plate (twin.tec full skirt plate). The lysis buffer and stop plates were stored at 4° C. until the cells were washed.
(§6) The plate was spun at 1100 rpm for 5 minutes. The culture medium was aspirated and discarded from the wells of the culture plate. The lysis was performed automatically using a BioMek FX instrument and method. After the Biomek method was completed, the lysis plate was incubated for 2 min. at room temperature. The lysis plate can be stored for 2 hours at 4° C., or at −20° C. or −80° C. for two months.
(§7) Each well of the reverse transcription plate required 10 uL of 2× reverse transcriptase Buffer, 1 uL of 20× reverse transcription enzyme and 2 uL of nuclease-free water. The reverse transcription master mix was prepared by mixing 2× reverse transcription buffer, 20× reverse transcription enzyme mix, and nuclease-free water. 13 uL of the reverse transcription master mix was dispensed into each well of the reverse transcription plate (semi-skirted). A separate reverse transcription plate was prepared for each cell plate. The plate was loaded onto a Biomek NX or Biomek FX Dual-96 and the Biomek method was run. The program is programmed to automatically added 7 uL of lysate from the cell lysis procedure described above into each well of the reverse transcription plate. The plate is sealed and spun on a centrifuge (1000 rpm for 30 seconds) to settle the contents to the bottom of the reverse transcription plate. The plate is placed in a thermocycler at 37° C. for 60 min, 95° C. for 5 min, and 4° C. until the plate is removed from the thermocycler. Upon removal, if not used immediately, the plate was frozen at −20° C.
(§8) A series of probes and primers were used to detect the various mRNA transcripts of the genes of ASK1, ASK2, and GAPDH in human cell lines and ASK1 and GAPDH in mouse cell lines. All Taqman probes and primers for the experiments were supplied as pre-validated sets by ABI (see Table 2).
(§9) The assays were performed on an ABI 7900 instrument, according to the manufacturer's instructions. A TaqMan Gene Expression Master Mix (provided in the Cells-to-CT™, Applied Biosystems, Cat #4399002) was used. […]
Background: Real-time PCR tracks product formation cycle by cycle.

For data set [2], the system named is ASK1 mRNA. Description: ASK1 mRNA knock-down by siNA in mouse Hepa1-6 cells (RNAiMax transfection, Taqman RT-PCR). Particulars: 10 nM siNA, 24 hrs post-transfection, vs non-targeting control, GAPDH-normalized, mean ± S.D., two experiments. The method, then: Hepal-6 (murine; ATCC cat #CRL-1830): Cells were cultured at 37° C. in the presence of 5% CO2 and grown in Dulbecco's modified Eagle's medium (DMEM) with 4 mM L-glutamine adjusted to contain 1.5 g/L sodium bicarbonate and 4.5 g/L glucose and supplemented with 10% of fetal bovine serum, 100 μg/mL of streptomycin, and 100 U/mL penicillin.
as §1, §2, §3, §4, §5, §6, §7, §8, §9

In data set [3] the test system is ASK1 mRNA. Put plainly: ASK1 mRNA knock-down by siNA in human A549 cells (RNAiMax transfection, Taqman RT-PCR). Particulars: 12 concentrations 0.083 fM to 30 nM, mean ± S.D.
Data set [4] concerns mRNA transcript of human ASK2. Description: ASK2 specificity screen: effect of ASK1 siNAs on human ASK2 mRNA in A549 cells. Conditions: 1 nM siNA, three independent experiments, mean ± standard deviation. The method, then:
A549 cells were plated in all wells of a tissue-culture treated, 96-well plate at a final count of 5,000 cells/well in 100 μL of appropriate culture media. Cells were cultured for 24 hours after plating at 37° C. in the presence of 5% CO2.
as §2, with “follows.” for “follows:”, “siRNAs” for “siNAs”, “12” for “120”, “siNA” for “siRNA”, “siNAs. […] This solution was incubated at room temperature for 20 minutes. After incubation, 20 uL of the solution was added to each of the relevant wells. The final concentration of siNA in each well was 1 nM and the final volume of RNAiMax in each well was 0.3 uL. The time of incubation with the RNAiMax-siNA complexes was 24 hours.” for “siNAs.”
as §5, §6, §7, §8
The assays were performed on an ABI 7900 instrument, according to the manufacturer's instructions. A TaqMan Gene Expression Master Mix (provided in the Cells-to-CT™, Applied Biosystems, Cat #4399002) was used. The PCR reactions were carried out at 50° C. for 2 min, 95° C. for 10 min followed by 40 cycles at 95° C. for 15 secs and 60° C. for 1 min.
The expression level of the gene of interest and % knock-down was calculated using Comparative Ct method:
ΔΔCt=ΔCt(Target siRNA)−ΔCt(NTC)
Relative expression level=2^−ΔΔCt
The non-targeting control siRNA was, unless otherwise indicated, chosen as the value against which to calculate the % knock-down, because it is the most relevant control.
The specificity of these siNAs was also assessed. […]

Regarding “25399-DC: siNA duplex, sense B ccAAcAcuAcAGucAGGAA TTB, antisense UUCcuGAcuGuAGuGuuGGUU (SEQ ID NO: 79/80), human ASK1 target site 1640 (sense CCAACACUACAGUCAGGAATT; antisense UUCCUGACUGUAGUGUUGGUU; sense: DNA at AGT, 2'-fluoro at CU, [invAb] at 5' end, 3' end, backbone not given here; antisense: sugars from the 5' end rrrffmmffmfmmfmffmmmm, backbone not given here)”, in the data set with ASK1 mRNA [1], the “% KD Human” value is given as 81 ± 2%, the “% KD ASK-1 mRNA at 10 nM” value stood at 81 ± 2% and the “% KD ASK-1 10 nM” value is listed as 81 ± 2%. The “% KD Mouse” value in the data set on ASK1 mRNA [2] is listed as 62 ± 0%. The IC50 in the data set on ASK1 mRNA [3] worked out at 150 ± 43 pM. Moreover, the “% KD ASK-2 1 nM” value in data set [4] is 9 ± 8%.

Regarding “25389-DC: siNA duplex, sense B GAGAcAAuuuuAAuAuAuA TTB, antisense UAUAuAuuAAAAuuGucucUU (SEQ ID NO: 59/60), human ASK1 target site 1907 (sense GAGACAAUUUUAAUAUAUATT; antisense UAUAUAUUAAAAUUGUCUCUU; chemistry not fully specified)”, in the data set with ASK1 mRNA [1], the “% KD Human” value is 93 ± 4%, the “% KD ASK-1 mRNA at 10 nM” value turned out to be 93 ± 4% and the “% KD ASK-1 10 nM” value turned out to be 93 ± 4%. In the data set with ASK1 mRNA [2], the “% KD Mouse” value is reported as −4 ± 4%. In the data set with ASK1 mRNA [3], this substance returned an IC50 of 3 ± 0.5 pM. In data set [4], the “% KD ASK-2 1 nM” value came to 5 ± 4%.

“25379-DC: siNA duplex, sense B cGAuGGAAAuucuAAAAAu TTB, antisense AUUuuuAGAAuuuccAucGUU (SEQ ID NO: 39/40), human ASK1 target site 4507 (sense CGAUGGAAAUUCUAAAAAUTT; antisense AUUUUUAGAAUUUCCAUCGUU; chemistry not fully specified)”: in the data set on ASK1 mRNA [1], the “% KD Human” value came out at 92 ± 0%, the “% KD ASK-1 mRNA at 10 nM” value was found to be 92 ± 0% and the “% KD ASK-1 10 nM” value worked out at 92 ± 0%. Moreover, the “% KD Mouse” value in the data set with ASK1 mRNA [2] came out at 4 ± 3%. For the same substance, the IC50 with ASK1 mRNA [3] stood at 9 ± 2 pM. Further, in data set [4], the “% KD ASK-2 1 nM” value is reported as −6 ± 4%.

For the origin of these results see patent US20120010272A1, “RNA Interference Mediated Inhibition of Apoptosis Signal-Regulating Kinase 1 (ASK1) Gene Expression Using Short Interfering Nucleic Acid (siNA)” (Merck Sharp & Dohme Corp., priority 2009, published 2012).
